# How the values were obtained:
# [1] = Saturation solubility of Cilengitide solid forms in water and solvents; format: physicochemical
# Procedure: Solubility in this regard is preferably refers to the saturation solubility, which is preferably the maximum mass of the respective compound, which can be solubilised or dissolved in a solvent at a respective temperature and at a specific pressure, preferably atmospheric pressure.
# 10 mL of solvent is placed in an amber glass ampul and sufficient substance is added to yield a distinct sediment that remains on the bottom after mixing thoroughly. After standing for 15 minutes and mixing again the ampuls are sealed and shaken in a thermostatically controlled water bath (20° C./16 hours or 25° C./16 hours, preferably 20° C./16 hours). Afterwards the ampuls are opened and the supernatant solution is filtered until the filtrate is clear. The content of the substance is determined photometrically in an aliquot by means of the specific adsorption coefficient. The respective dilution of the solvent without substance serves as blank. The solubility is expressed in the dimension of g substance in 100 mL or mg substance in 1 mL, preferably in mg substance in 1 mL. Preferably, this method is performed at normal atmospheric pressure and especially at the standardised “normal” atmospheric pressure, i.e. 1 atm=1.01325 bar.
# [2] = Dynamic vapour experiments (Water Vapour Sorption, 25° C.); format: physicochemical; conditions: for mass loss in the first desorption cycle / initial drying step (0% rh) / total mass loss in the second desorption cycle: Water Vapour Sorption; for maximum weight gain upon water vapour adsorption (assembly of water molecules in the lattice): at elevated rh
# From the text: (§1) A SMS DVS Intrinsic is used for the dynamic vapour experiments. The results are obtained by standard techniques as described in Rolf Hilfiker, ‘Polymorphism in the Pharmaceutical Industry’, Wiley-VCH. Weinheim 2006 (Chapter 9: Water Vapour Sorption, and references therein). […] Upon water vapour adsorption, an assembly of water molecules in the lattice is observed, with a maximum weight gain of approx. 8 wt % at elevated rh. In the second desorption cycle a total mass loss of approx. 9.9 wt % is observed. For a Cilengitide Dihydrate Di-Methanolate, the calculated Methanol content equals 9.3 wt %.
# as §1, with “6.4” for “8”, “9.2” for “9.9”, “Di-Ethanolate,” for “Di-Methanolate,”, “Ethanol” for “Methanol”, “12.5” for “9.3”
# [3] = Thermodynamic stability of crystalline forms (slurry / vapour atmosphere); format: physicochemical
# From the text: Wetted material in this regard is preferably a mixture of the respective anhydrate with at least 5% by weight, more preferably at least 10% by weight and especially 20% by weight, of the respective aqueous system.
# Upon water vapour adsorption, an assembly of water molecules in the lattice is observed, with a maximum weight gain of approx. 6.4 wt % at elevated rh. In the second desorption cycle a total mass loss of approx. 9.2 wt % is observed. For a Dihydrate Di-Ethanolate of the compound of formula Id, the calculated Ethanol content equals 12.5 wt %.
# Also the pure form A1 can be manufactured by competitive slurry conversion experiments with a mixture of a pseudopolymorphic form (for example S1, S2, S3 or mixtures of these) and A1 (1:1) in Acetone, Acetonitrile, Isopropanol, physiological NaCl solution, Phosphate buffer (pH 7.4) and 1:1 (v:v) mixtures of Acetone, Acetonitrile, Isopropanol with Water at RT (25° C.).
# Approx. 20 mg of a pseudopolymorphic form (for example S1, S2, S3 or mixtures of these) and 20 mg of form A1 of Cilengitide are dispersed in 200-700 μl solvent at room temperature. The dispersion is stirred for 5 days and additionally 26 days (long-term experiment) at RT (25° C.) by a magnetic stirrer and finally filtered. […]
# [4] = Pharmacokinetic study in monkeys; conditions: in vivo, Cynomolgus monkey, animal 583, dose 11.8 mg/kg, suspension Cilengitide 300 mg/mL + DMPG 2 mg/mL, read-out: MSC1097999
# Procedure: • Composition (Suspension) administered • Cilengitide: 300 mg/mL • DMPG: 2 mg/mL • Phenol: 0.5% • NaCl: 0.9% • Species/strain and number of animals • Monkey, Cynomolgus • Dose: 12 mg/kg (40 μL suspension/kg) • Sampling time points: 0.25, 0.5, 2, 4, 8 hours post dose: […]
compound,measurement,setting,value
"CC(C)[C@H]1C(=O)N[C@@H](CCCNC(=N)N)C(=O)NCC(=O)N[C@@H](CC(=O)O)C(=O)N[C@H](Cc2ccccc2)C(=O)N1C [tetrahydrate Form S3, cyclo-(Arg-Gly-Asp-DPhe-NMeVal)]",Solubility,[1]; solvent H2O/Acetone (1:1),22700 µg/mL
same,mass loss in the first desorption cycle / initial drying step (0% rh),[2],ca. 9 wt %
same,maximum weight gain upon water vapour adsorption (assembly of water molecules in the lattice),[2],ca. 10 wt %
cyclo-(Arg-Gly-Asp-DPhe-NMeVal) [form S2],mass loss in the first desorption cycle / initial drying step (0% rh),[2],approx. 6.5 wt %
same,total mass loss in the second desorption cycle,[2],approx. 9.2 wt %
same,mass loss in the first desorption cycle / initial drying step (0% rh),[2]; listed as crystalline form S2,approx. 6.5 wt %
same,total mass loss in the second desorption cycle,[2]; listed as crystalline form S2,approx. 9.2 wt %
same,maximum weight gain upon water vapour adsorption (assembly of water molecules in the lattice),[2],approx. 6.4 wt %
same,maximum weight gain upon water vapour adsorption (assembly of water molecules in the lattice),[2]; listed as crystalline form S2,approx. 6.4 wt %
same,thermodynamic stability of the form,[3]; atmosphere of 100% Ethanol vapour,thermodynamically stable form
cyclo-(Arg-Gly-Asp-DPhe-NMeVal) [form S1],mass loss in the first desorption cycle / initial drying step (0% rh),[2],approx. 8 wt %
same,total mass loss in the second desorption cycle,[2],approx. 9.9 wt %
same,maximum weight gain upon water vapour adsorption (assembly of water molecules in the lattice),[2],approx. 8 wt %
CC(C)[C@H]1C(=O)N[C@@H](CCCN=C(N)N)C(=O)NCC(=O)N[C@@H](CC(=O)O)C(=O)N[C@H](Cc2ccccc2)C(=O)N1C [MSC1097999],level at 0.25 h,[4]; 0.250 h,586 ng/mL
same,level at 0.5 h,[4]; 0.500 h,967 ng/mL
same,level at 2 h,[4]; 2.00 h,892 ng/mL
same,level at 4 h,[4]; 4.00 h,605 ng/mL
same,level at 8 h,[4]; 8.00 h,537 ng/mL
"CC(C)[C@H]1C(=O)N[C@@H](CCCNC(=N)N)C(=O)NCC(=O)N[C@@H](CC(=O)O)C(=O)N[C@H](Cc2ccccc2)C(=O)N1C [crystalline form A1, cyclo-(Arg-Gly-Asp-DPhe-NMeVal)]",solubility at 16 h,"[1]; water, at 20° C. or 25° C., preferably at 20° C.",~7000 µg/mL
same,hygroscopicity classification acc. to Ph. Eur. criteria,[2]; water uptake up to 98% relative humidity,non-hygroscopic
same,thermodynamic stability of the form,"[3]; in the presence of aqueous based solvents, absence of methanol and/or ethanol",thermodynamically stable form

# Source: patent US9433577B2, “Pharmaceutical composition comprising oligopeptides” (Merck Patent GmbH, priority 2009, dated 2016)
